Experimental data from PubChem BioAssay AID488890 (Southern Research Specialized Biocontainment Screening …, 2010).
Results filed as inconclusive are left out. Activity calls are given as the source filed them. How the calls were made is not given here.

What follows are molecules tested on Mycobacterium tuberculosis non-replicating, growth inhibition (assay: growth inhibition of non-replicating M. tuberculosis (AID 488890)).

Compound | IC50
CCC(C)(C)NC(=O)c1ccc(Br)o1 | 18.6 µM (inactive)
COc1cccc(C(=O)N2N=C(c3ccccn3)CC2(O)C(F)(F)F)c1 (stereo not drawn) | 12.3 µM (inactive)
COc1cc(NCCC(=O)c2cccs2)c(OC)cc1Cl | 4.04 µM
COc1cc2[nH]c(Cl)c([N+](=O)[O-])c2cc1OC | 14.1 µM (inactive)
CC(C)(C)c1ccc2c(c1)OC(C(=O)N/N=C\c1ccccn1)CO2 (stereo not drawn) | 4.8 µM
C/C(=N\NC(=O)CCc1ccccc1)C1C(=O)c2ccccc2C1=O | 0.25 µM
Cc1ccc(Nc2ccccc2N)cc1 | 2.52 µM
Cn1c(SCCOc2cccc(Cl)c2)nnc1-c1ccncc1 | 11.4 µM (inactive)
NC(=O)c1ccc(N=Cc2ccc([N+](=O)[O-])s2)cc1 | 11.8 µM (inactive)
Cc1cccc(NC(=O)c2ccc(OC3CSC3)cc2)c1 | 28.7 µM (inactive)
Cc1ccc(C(=O)N/N=C/c2cccc3ccccc23)cn1 | 5.95 µM
CN1c2ccsc2/C(=N/Nc2ccccc2)CS1(=O)=O | 0.29 µM
O=C(OCC#CCSc1nnc(-c2ccncc2)o1)c1cccs1 | 4.13 µM
COC(=O)C1=C(C)N(CC2CC2)C(=NCc2cccc(Cl)c2)N[C@H]1c1ccccc1 | 10.5 µM (inactive)
Cc1ccc(-n2cc(CNCCc3ncc(C)[nH]3)c(-c3ccc(F)cc3)n2)cc1 | 17.3 µM (inactive)
Cc1cc(OCCOCCNCc2ccccc2)ccc1C(C)C | 15.1 µM (inactive)
O=C(NNc1ccc([N+](=O)[O-])cc1)c1ccccc1Cl | 9.32 µM
CC(=O)Nc1cccc(-c2nc3ccccc3c(=O)o2)c1 | 7.84 µM
N/C(=N/OC(=O)c1ccc(Cl)cc1)c1ncc([N+](=O)[O-])s1 | 7.53 µM
NC(N)=Nc1nc(-c2ccccc2)c2ccccc2n1 | 12.8 µM (inactive)
Cc1cc2nc(CSc3ccc(Cl)cc3)cc(=O)n2[nH]1 | 14.8 µM (inactive)
CCCn1nnnc1NCc1ccc(CC)cc1 | 8.41 µM
O=C(NCc1ccccc1)c1cc2ccccc2oc1=O | 43.8 µM (inactive)

Compound | IC50
CCc1nnc(N/N=C/c2ccc(-c3ccc([N+](=O)[O-])cc3)o2)n1N | 7.59 µM
COc1cc(OC)c2c(OC)cccc2n1 | 6.63 µM
COC(=O)COc1ccc(-c2ccc(F)cc2)cc1C=O | 5.82 µM
CCCCNC(=O)Cc1ccc(C)cc1 | 5.46 µM
CSc1nc2ccc(NC(=O)C3CC(=O)N(Cc4ccccc4)C3)cc2s1 (stereo not drawn) | 13.6 µM (inactive)
COc1ccc(OC)c(N2C(=O)NC(=O)/C(=C/c3ccc([N+](=O)[O-])s3)C2=O)c1 | 25.5 µM (inactive)
CCCCn1nnc(NC(=O)COc2ccc(Cl)c(C)c2)n1 | 7.56 µM
CCOC(=O)c1c(C)nc2c3ccccc3ccn12 | 13.3 µM (inactive)
Oc1ccccc1-c1nnc(COc2ccccc2)o1 | 11.2 µM (inactive)
CC1=CN2C(=N)/C(=C/c3ccc([N+](=O)[O-])o3)C(=O)N=C2S1 | 12.8 µM (inactive)
COc1ccc(-c2nnc(NC(=O)c3ccc(S(=O)(=O)N4COCC4(C)C)cc3)o2)cc1 | 11.2 µM (inactive)
CC12CN3CC(C)(CN(C1)C3c1ccc([N+](=O)[O-])o1)C2 (stereo not drawn) | 4.23 µM
O=C(Nc1ccc(Br)cc1)c1cc([N+](=O)[O-])cc([N+](=O)[O-])c1 | 2.63 µM
COC(=O)COc1ccc2c(-c3ccc(OC)cc3)cc(=O)oc2c1 | 0.78 µM
CCOC(=O)C1CCCc2c1[nH]c1c(C(N)=O)cccc21 (stereo not drawn) | 9.99 µM
Cc1ccc(NC(=O)CN(C)CC(=O)Nc2ccc(F)c(Cl)c2)cc1 | 26.5 µM (inactive)
N#CC1=C(N)Oc2c(ccc3cccnc23)C1c1ccccc1 (stereo not drawn) | 33.9 µM (inactive)
CC(/C=C/c1ccccc1)=N\NC(=O)c1ccc2c(c1)OCCO2 | 8.02 µM
O=[N+]([O-])c1ccc(/C=N/n2c(CO)nc3ccccc32)s1 | 1.18 µM
Cn1c(=O)c(Oc2ccc(Cl)cc2)c(O)c2ccccc21 | 11.1 µM (inactive)
CC(NC(=O)c1cc2cc(Br)ccc2oc1=N)c1ccccc1 (stereo not drawn) | 6.97 µM
CC(=O)c1ccc(OCC(=O)Nc2ccc3c(c2)CCC3)cc1 | 12.4 µM (inactive)
CCc1ccc(NC(=O)C(=O)NNC(=O)COc2cccc(OC)c2)cc1 | 2.49 µM

Compound | IC50
O=C(Oc1ccccc1)c1cccc(COC(=O)c2cnccn2)c1 | 28.6 µM (inactive)
Cc1cc(C(=O)N/N=C/c2ccc(OC(=O)c3ccccc3Br)cc2)n[nH]1 | 15.6 µM (inactive)
CCc1nnc(NC(=O)CN2CCN(Cc3ccc(F)cc3)CC2)s1 | 47 µM (inactive)
O=C(CCSc1nnc(-c2ccncc2)o1)Nc1ccc(Cl)cc1 | 14.7 µM (inactive)
O=C1c2ccccc2-n2c1nc1ccccc1c2=O | 2.8 µM
COc1ccc(-c2noc(-c3cc4ccccc4oc3=O)n2)cc1 | 5.06 µM
O=C(N/N=C/c1ccc([N+](=O)[O-])s1)c1cccnc1 | 4.48 µM
O=C(Nc1nnc(COc2ccc(Cl)cc2)s1)c1ccco1 | 21.4 µM (inactive)
CC(C)CN1C(=O)/C(=C(/C#N)C(=O)NC2CCCCC2)c2ccccc21 | 25.9 µM (inactive)
CC(NC(=O)COc1ccccc1F)C1CC2CCC1C2 (stereo not drawn) | 0.42 µM
Cc1cc(C)cc(NC(=O)COC(=O)CC2CCCC2)c1 | 21.5 µM (inactive)
O=C(COc1ccc([N+](=O)[O-])cc1)NNC(=O)c1cccs1 | 28.1 µM (inactive)
COc1ccccc1-c1nnc(Sc2nc([N+](=O)[O-])nn2C)o1 | 8.19 µM
Nc1nnc(Sc2ncccc2[N+](=O)[O-])s1 | 17 µM (inactive)
C/C(=N\Nc1nc2ccccc2nc1C)c1ccccc1O | 1.65 µM
O=C(c1ccc([N+](=O)[O-])cc1[N+](=O)[O-])N1CCc2ccccc21 | 3.34 µM
C=CCn1c(O)c(C2=c3ccccc3=NC2=O)c2ccccc21 | 2.68 µM
COc1cccc(NC(=O)c2ccc(-c3ccc([N+](=O)[O-])cc3)o2)c1 | 1.2 µM
Cc1cccc(NC(=O)COC(=O)CCc2c[nH]c3ccccc23)c1 | 1.94 µM
COC(=O)CCC(=O)Nc1sc(Cc2ccccc2)c(C)c1C(N)=O | 13.6 µM (inactive)
CCCCOC(=O)C1CCCC(C(=O)OCCCC)N1 (stereo not drawn) | 4.91 µM
Cc1ccc(NCCC(=O)c2cccs2)cc1 | 2.33 µM
COC(=O)COc1ccc2c(=O)c(-c3ccccc3OC)coc2c1 | 7.87 µM

Compound | IC50
CN(C)CCN1C(=O)c2oc3ccccc3c(=O)c2C1c1cccc(Br)c1 (stereo not drawn) | 23.1 µM (inactive)
Clc1cccc(OCCN2CCN(CCOc3cccc(Cl)c3)CC2)c1 | 21.7 µM (inactive)
CCc1ccc(NC(=O)COc2ccc3c(c2)OCO3)cc1 | 5.33 µM
CC(/C=C/c1ccccc1F)=N\NC(=O)c1ccccc1 | 3.87 µM
COC(=O)c1ccc(OCC(=O)c2cccc(OC)c2)cc1 | 11 µM (inactive)
O=C(COc1ccccc1)Nc1ccc(F)cc1 | 8.5 µM
CC(=O)Oc1ccc(N(C(C)=O)S(=O)(=O)c2cccs2)c2ccccc12 | 11.6 µM (inactive)
CN(/N=C/c1ccc([N+](=O)[O-])o1)c1ccccc1 | 13.4 µM (inactive)
COc1cc(OC)cc(-c2nc3ccccc3c(=O)o2)c1 | 2.33 µM
O=C(NNC(=O)C12CC3CC(CC(C3)C1)C2)c1ccccn1 | 6.79 µM
N#Cc1nc(-c2cccs2)oc1NCCc1ccccc1 | 4.77 µM
CCOC(=O)c1cc(-c2csc(COc3ccc(Cl)cc3)n2)on1 | 0.13 µM
Cc1ccc(NCCC(=O)c2cccs2)cc1C | 6.07 µM
CN(C)CCC(=O)N1c2ccccc2Sc2ccc(Cl)cc21 | 21 µM (inactive)
O=C(NNC(=S)NC(=O)c1cn(-c2ccccc2)nc1-c1ccccc1)c1ccncc1 | 21.9 µM (inactive)
CC(Oc1ccc2ccccc2c1)C(=O)NNC(=S)NC(=O)c1ccco1 (stereo not drawn) | 22.1 µM (inactive)
CCCCOc1ccc(NC(=O)CN2CCN(Cc3ccccc3)CC2)cc1 | 25.6 µM (inactive)
CN1C(=O)/C(=C/c2cccc(Cl)c2)Sc2ccc(C(=O)N3CCCC3)cc21 | 22 µM (inactive)
Cc1cc(Cl)ccc1OC(C)C(=O)Nc1ccc([N+](=O)[O-])cn1 (stereo not drawn) | 23.3 µM (inactive)
Cc1nc2ccc(OC(=O)c3ccccc3)cc2s1 | 20.9 µM (inactive)
O=C(CCN1C(=O)S/C(=C\c2ccc(F)cc2)C1=O)Nc1ccc(C(=O)O)c(O)c1 | 0.17 µM
Cc1ccc(N2NC(=O)/C(=C/C=C/c3ccco3)C2=O)cc1C | 3.72 µM
C#CCSc1nnc(-c2ccc(O)cc2)o1 | 7.34 µM

Compound | IC50
OC(CNCC(c1ccc(Cl)cc1Cl)c1c[nH]c2ccccc12)c1ccccc1 (stereo not drawn) | 10.9 µM (inactive)
Cc1ccc(OCCCCn2ccnc2)c([N+](=O)[O-])c1 | 28.5 µM (inactive)
CC(C)(C)NC(=O)C(=O)NNC(=O)c1ccc(C(C)(C)C)cc1 | 5.82 µM
CCOC(=O)c1c(-c2ccccc2)csc1NC(=O)CCN1CCOCC1 | 24.4 µM (inactive)
O=C(N/N=C/c1cccc2cccnc12)c1ccccc1O | 3.16 µM
Cc1ccc(SCCC(=O)OCC(=O)NCC2CCCCC2)cc1 | 16.6 µM (inactive)
O=C(OCn1nnc2ccccc2c1=O)C1CCCCC1 | 22 µM (inactive)
O=C(NNC1=Nc2ccccc2SC1)c1ccc(F)cc1 | 17.3 µM (inactive)
CCCc1cc(NCCCn2ccnc2)n2nc(C)c(-c3ccccc3)c2n1 | 19.5 µM (inactive)
CNC(=S)N1CCN(c2c(F)cc3c(=O)c(C(=O)O)cn(C4CC4)c3c2OC)CC1C (stereo not drawn) | 0.42 µM
CCC(CC)c1nnc(NC(=O)c2ccc3ccccc3n2)s1 | 4.02 µM
O=C(COC(=O)C1CC2C=CC1C2)Nc1ccccc1 (stereo not drawn) | 35.7 µM (inactive)
COc1ccc(C2=NOC(COC(=O)c3ccc4ccccc4n3)C2)cc1 (stereo not drawn) | 5.43 µM
Cc1onc(-c2ccccc2)c1C(=O)N/N=C/c1ccc([N+](=O)[O-])s1 | 8.09 µM
CCCOC(=O)c1ccc(NC(=O)Cc2cccs2)cc1 | 24.1 µM (inactive)
O=C(CN1CCOCC1)N/N=C/c1ccc(-c2ccc(Br)cc2)o1 | 4.3 µM
CN(CCOCCOc1ccc(F)cc1)Cc1ccccc1 | 10.9 µM (inactive)
Cc1cc([N+](=O)[O-])ccc1NC(=O)Nc1ccc(F)cc1F | 21.9 µM (inactive)
Cc1cccc(NC(=O)CO/N=C/c2ccc3c(c2)OCO3)c1 | 10.2 µM (inactive)
O=C(CCNc1ccc(Cl)cc1)c1cccs1 | 3.79 µM
O=C(CCSc1ccc(Cl)cc1)Nc1cccnc1 | > 50 µM (inactive)
